# Columns and labels:
# CSPG = CSPG neoepitope (Ab1918) and laminin immunolabeling of acellular nerve segments treated en bloc; settings: acellular rat sciatic nerve segments bathed en bloc 16 h, 2 units/ml
# From the text: Preparation of acellular nerve grafts treated with chondroitinase: Adult (180-200 g) female SPRAGUE DAWLEY rats (HARLAN, Indianapolis, Ind.) were used as nerve donors and recipient hosts. Donor rats were anesthetized with halothane and decapitated. Sciatic nerves were exposed through a gluteal muscle-splitting incision and isolated free of underlying fascia. A 15-mm nerve segment was excised rostral to the bifurcation into common peroneal and tibial nerves. The segments were rinsed with cold sterile Ringer's solution, stabilized by pinning the ends to a thin plastic support, and transferred to a cryogenic vial. The vials were submerged in liquid nitrogen for 2 minutes and then transferred to a 37° C. water bath for 2 minutes. This freeze/thaw cycle was repeated, yielding acellular nerve grafts that were then stored in liquid nitrogen. On the day before grafting, the nerve grafts were warmed to room temperature and incubated in 100 μl phosphate buffered saline pH 7.4 (PBS) containing 2 units/ml chondroitinase ABC (SIGMA, St. Louis, Mo.) or in PBS (vehicle) only for 16 hours at 37° C. The grafts were rinsed twice with Ringer's and kept on ice prior to use. […]
# (§1) Immunocytochemistry. Axonal regeneration was assessed by GAP-43 immunofluorescence and digital image analysis. […]
# sciatic nerve = assay: Axonal regeneration into acellular interpositional nerve grafts (GAP-43 profiles); type: in vivo, rat
# From the text: Preparation of acellular nerve grafts treated with chondroitinase: Adult (180-200 g) female SPRAGUE DAWLEY rats (HARLAN, Indianapolis, Ind.) were used as nerve donors and recipient hosts. Donor rats were anesthetized with halothane and decapitated. Sciatic nerves were exposed through a gluteal muscle-splitting incision and isolated free of underlying fascia. A 15-mm nerve segment was excised rostral to the bifurcation into common peroneal and tibial nerves. The segments were rinsed with cold sterile Ringer's solution, stabilized by pinning the ends to a thin plastic support, and transferred to a cryogenic vial. The vials were submerged in liquid nitrogen for 2 minutes and then transferred to a 37° C. water bath for 2 minutes. This freeze/thaw cycle was repeated, yielding acellular nerve grafts that were then stored in liquid nitrogen. On the day before grafting, the nerve grafts were warmed to room temperature and incubated in 100 μl phosphate buffered saline pH 7.4 (PBS) containing 2 units/ml chondroitinase ABC (SIGMA, St. Louis, Mo.) or in PBS (vehicle) only for 16 hours at 37° C. The grafts were rinsed twice with Ringer's and kept on ice prior to use. The chondroitinase ABC preparation was highly purified and stated by the manufacturer to be essentially free of protease activity.
# Interpositional nerve grafting for chondroitinase experiments. Twelve rats received bilateral acellular nerve grafts, one chondroitinase-treated and one vehicle-treated graft. Host rats were deeply anesthetized using xylazine (15 mg/kg, i.m.) and ketamine (110 mg/kg, i.p.). The sciatic nerve was exposed and supported by a plastic insert placed between the nerve and underlying tissue. […]
# The main grafts were sectioned serially on the transverse plane in recorded measure to assess the extent of axonal growth by microscopy. […] GAP-43-positive axon profiles were scored using IMAGE-PRO PLUS software (MEDIA CYBERNETICS, Silver Springs, Md.).
# as §1
substance,measurement,setting,value
chondroitinase ABC,CSPG degradation by Ab1918 neoepitope immunostaining,CSPG,thoroughly degraded CSPG side-chains
same,axonal penetration vs control at 0.3 mm from the host-graft interface,"sciatic nerve; 4-day grafts, 3 animals",five-fold greater
same,average number of axons (GAP-43-immunopositive profiles) entering grafts vs control grafts,"sciatic nerve; 8-day grafts, 9 rats with bilateral grafts",more than three-fold greater
same,propensity of axons to grow within basal laminae,"sciatic nerve; 8-day grafts, GAP-43 and laminin double label",unaltered

# From US7732200B2, “Materials and methods for nerve grafting, selection of nerve grafts, and in vitro nerve tissue culture” (University of Florida Research Foundation, Inc., priority 2001, dated 2010)
